According to patent publication US6162803A, “Indol-3-yl-cyclohexyl amine derivatives for the treatment of depression” (American Home Products Corp., priority 1999, dated 2000):

Legend:
serotonin transporter = molecular target: T1, serotonin transporter (Rattus norvegicus, UniProt P31652); assay: [3H]-paroxetine binding, affinity for the serotonin transporter (rat frontal cortical membranes); set-up: species or system male Sprague-Dawley rats; settings: 3H-paroxetine (0.1 nM); for Ki: 60 min at 25° C., read-out: Ki (nM) ST [^3 H]paroxetine
T1 construct: frontal cortical membranes prepared from male Sprague-Dawley rats; from tissue; host or cells: frontal cortical membranes of male Sprague-Dawley rats
Protocol: A protocol similar to that used by Cheetham et al., Neuropharmacol., 32:737 (1993) was used to determine the affinity of compounds for the serotonin transporter. Briefly, frontal cortical membranes prepared from male Sprague-Dawley rats were incubated with ^3 H-paroxetine (0.1 nM) for 60 min at 25° C. All tubes also contained either vehicle, test compound (one to eight concentrations), or a saturating concentration of fluoxetine (10 μM) to define […]. All reactions are terminated by the addition of ice cold Tris buffer followed by rapid filtration using a Tom Tech filtration device to separate bound from free ^3 H-paroxetine. Bound radioactivity was quantitated using a Wallac 1205 Beta Plate® counter. Nonlinear regression analysis was used to determine IC50 values which were converted to Ki values using the method of Cheng and Prusoff, Biochem. Pharmacol., 22:3099 (1973); Ki=IC50/((Radioligand conc.)/(1+KD)).

human 5-HT1A receptor = molecular target: T2, human 5-HT1A receptor (Homo sapiens, UniProt P08908); assay: [3H]8-OH-DPAT competition binding at human 5-HT1A receptor (5-HT1A.CHO cell membranes); settings: [3H]8-OH-DPAT 1.5 nM; for inhibition at 1 µM: 0.5 h
T2 construct: expressed in transfected cells; host or cells: Chinese hamster ovary cells (5-HT1A.CHO), membranes
T2 sequence (P08908 1-422): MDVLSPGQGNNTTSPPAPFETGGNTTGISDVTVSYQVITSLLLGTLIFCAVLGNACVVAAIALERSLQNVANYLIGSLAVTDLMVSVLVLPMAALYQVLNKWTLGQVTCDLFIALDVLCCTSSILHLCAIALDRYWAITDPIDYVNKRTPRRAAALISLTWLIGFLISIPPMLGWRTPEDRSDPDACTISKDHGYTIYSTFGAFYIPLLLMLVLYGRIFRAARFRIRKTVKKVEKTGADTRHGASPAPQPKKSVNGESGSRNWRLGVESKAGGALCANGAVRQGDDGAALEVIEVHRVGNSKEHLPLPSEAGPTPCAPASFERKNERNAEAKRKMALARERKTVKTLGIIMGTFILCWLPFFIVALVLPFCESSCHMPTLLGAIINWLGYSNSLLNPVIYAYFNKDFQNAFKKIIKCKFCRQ
Protocol: The PCR cloning of the human 5-HT1A receptor subtype from a human genomic library has been described previously Chanda et al., Mol. Pharmacol., 43:516 (1993). A stable Chinese hamster ovary cell line expressing the human 5-HT1A receptor subtype (5-HT1A.CHO cells) was employed throughout this study. Cells were maintained in DMEM supplemented with 10% foetal calf serum, non-essential amino acids and penicillin/streptomycin.
Cells were grown to 95-100% confluency as a monolayer before membranes were harvested for binding studies. Cells were gently scraped from the culture plates, transferred to centrifuge tubes, and washed twice by centrifugation (2000 rpm for 10 min., 4° C.) in buffer (50 mM Tris; pH 7.5). The resulting pellets were aliquoted and placed at -80° C. On the day of assay, the cells were thawed on ice, and resuspended in buffer. Studies were conducted using [^3 H]8-OH-DPAT as the radioligand. The binding assay was performed in 96 well microtiter plates in a final total volume of 250 μL of buffer. Competition experiments were performed by using 7 concentrations of unlabelled drug and a final ligand concentration of 1.5 nM. Non-specific binding was determined in the presence of 10 μM 5HT. Saturation analysis was conducted by using [^3 H]8-OH-DPAT at concentrations ranging from 0.3-30 nM. Following a 30 minute incubation at room temperature, the reaction was terminated by the addition of ice cold buffer and rapid filtration using a M-96 Brandel Cell Harvester (Gaithersburg, Md) through a GF/B filter presoaked for 30 minutes in 0.5% polyethyleneimine.

T1 sequence (P31652 whole entry): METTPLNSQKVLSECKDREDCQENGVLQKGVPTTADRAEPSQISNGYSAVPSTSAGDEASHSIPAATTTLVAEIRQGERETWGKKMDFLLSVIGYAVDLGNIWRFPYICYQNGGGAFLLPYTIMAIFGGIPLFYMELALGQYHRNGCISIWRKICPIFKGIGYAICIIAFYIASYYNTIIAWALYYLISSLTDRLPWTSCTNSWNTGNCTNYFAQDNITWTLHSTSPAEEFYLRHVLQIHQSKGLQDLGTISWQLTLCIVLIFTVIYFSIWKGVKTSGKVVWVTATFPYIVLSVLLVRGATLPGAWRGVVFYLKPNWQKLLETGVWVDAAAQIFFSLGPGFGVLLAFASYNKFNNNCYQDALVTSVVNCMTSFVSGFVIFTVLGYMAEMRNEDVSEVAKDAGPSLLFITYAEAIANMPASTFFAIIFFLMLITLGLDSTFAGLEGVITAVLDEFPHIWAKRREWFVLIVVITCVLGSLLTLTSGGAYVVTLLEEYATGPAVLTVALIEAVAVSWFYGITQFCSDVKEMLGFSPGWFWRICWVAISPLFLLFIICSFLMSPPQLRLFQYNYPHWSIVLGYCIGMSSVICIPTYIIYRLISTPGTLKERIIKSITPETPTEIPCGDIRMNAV

Row | Compound | Ki (serotonin transporter) [nM] | inhibition at 1 µM (human 5-HT1A receptor) [%] | inhibition at 1 µM (serotonin transporter; 1 h, @ 1 μM, read-out: ST [^3 H]paroxetine, % @ 1 μM) [%] | Ki (human 5-HT1A receptor; 30 minute incubation at room temperature) [nM]
1 | Fc1ccc2[nH]cc([C@H]3CC[C@H](NCC4CNc5ccccc5O4)CC3)c2c1 (relative stereo) [1 (trans), (3,4-Dihydro-benzo[1,4]oxazine-2-ylmethyl)-[trans-4-(5-fluoro-1H-indol-3-yl)-cyclohexyl]-amine] | 24 | 44 |  | 
2 | Fc1ccc2[nH]cc([C@H]3CC[C@@H](NCC4COc5ccccc5N4)CC3)c2c1 (relative stereo) [2 (cis), (3,4-Dihydro-benzo[1,4]oxazine-3-ylmethyl)-[cis-4-(5-fluoro-1H-indol-3-yl)-cyclohexyl]-amine] |  | 9 | 34 | 
3 | Fc1ccc2[nH]cc([C@H]3CC[C@H](NCC4COc5ccccc5N4)CC3)c2c1 (relative stereo) [2 (trans), (3,4-Dihydro-benzo[1,4]oxazine-3-ylmethyl)-[trans-4-(5-fluoro-1H-indol-3-yl)-cyclohexyl]-amine] | 10 | 20 |  | 
4 | Fc1ccc2[nH]cc([C@H]3CC[C@@H](NCC4CNc5ccccc5O4)CC3)c2c1 (stereo partly drawn) [1 (cis), (3,4-Dihydro-benzo[1,4]oxazine-2-ylmethyl)-[cis-4-(5-floro-1H-indol-3-yl)-cyclohexyl]-amine] | 44 |  |  | 2430
